In brackets after ≈: the same amount, converted by molar mass.
Test system: Staphylococcus aureus Smith
Assay: MIC assay, modified agar dilution (CLSI), S. aureus Smith
Type: cell-based
Settings: agar dilution, 35° C., 16-20 hr, lowest concentration that completely inhibited growth; for MIC: Staphylococcus aureus, read-out: S_aureus_Smith_WT_MIC
Method in brief: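 Agar dilution per CLSI on Mueller Hinton agar (plus 5% horse blood for S. pneumoniae and E. faecium), compound 128 to 0.001 μg/mL in two-fold steps. Spots of ~1×10^4 CFU incubated at 35 °C for 16-20 hr before MIC scoring.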

Structure (SMILES) | MIC | S_aureus_Smith_WT_MIC
COc1ccc2ncc(F)c(C[C@@H](O)C34CCC(NCc5ncc6c(n5)OCCO6)(CC3)CO4)c2n1 [Example 145, (R)-1-(4-((6,7-Dihydro-[1,4]dioxino[2,3-d]pyrimidin-2-yl)methylamino)-2-oxabicyclo[2.2.2]octan-1-yl)-2-(3-fluoro-6-methoxy-1,5-naphthyridin-4-yl)ethanol] | 0.25 µg/mL (≈ 0.502 µM) | –
COc1ccc2ncc(F)c(CCC34CCC(NCc5ccc6c(n5)OCCO6)(CC3)CO4)c2n1 [Example 146, N-((2,3-Dihydro-[1,4]dioxino[2,3-b]pyridin-6-yl)methyl)-1-(2-(3-fluoro-6-methoxy-1,5-naphthyridin-4-yl)ethyl)-2-oxabicyclo[2.2.2]octan-4-amine] | 0.125 µg/mL (≈ 0.26 µM) | –
COc1ccc2ncc(F)c(CC(O)C34CCC(NCc5ccc6c(n5)OCCO6)(CC3)CO4)c2n1 (stereo not shown) [Example 147, 1-(4-((2,3-Dihydro-[1,4]dioxino[2,3-b]pyridin-6-yl)methylamino)-2-oxabicyclo[2.2.2]octan-1-yl)-2-(3-fluoro-6-methoxy-1,5-naphthyridin-4-yl)ethanol] | 0.125 µg/mL (≈ 0.252 µM) | –
COc1ccc2ncc(F)c(CCC34CCC(NCc5cc6c(cn5)OCC(=O)N6)(CC3)CO4)c2n1 [Example 148, 7-((1-(2-(3-Fluoro-6-methoxy-1,5-naphthyridin-4-yl)ethyl)-2-oxabicyclo[2.2.2]octan-4-ylamino)methyl)-1H-pyrido[3,4-b][1,4]oxazin-2(3H)-one] | – | 0.0310 µg/mL
COc1ccc2ncc(F)c(CC(O)C34CCC(NCc5cc6c(cn5)OCC(=O)N6)(CC3)CO4)c2n1 (stereo not shown) [Example 149, 7-((1-(2-(3-Fluoro-6-methoxy-1,5-naphthyridin-4-yl)-1-hydroxyethyl)-2-oxabicyclo[2.2.2]octan-4-ylamino)methyl)-1H-pyrido[3,4-b][1,4]oxazin-2(3H)-one] | 0.063 µg/mL (≈ 0.124 µM) | –
COc1cc(OC)c2nccc(CCC34CCC(NCc5ccc6c(n5)NC(=O)CO6)(CC3)CO4)c2n1 [Example 150, 6-((1-(2-(6,8-Dimethoxy-1,5-naphthyridin-4-yl)ethyl)-2-oxabicyclo[2.2.2]octan-4-ylamino)methyl)-2H-pyrido[3,2-b][1,4]oxazin-3(4H)-one] | 0.5 µg/mL (≈ 0.989 µM) | –
COc1ccc2ccc(F)c(CCC34CCC(NCc5ccc6c(n5)NC(=O)CO6)(CC3)CO4)c2n1 [Example 153, 6-((1-(2-(7-Fluoro-2-methoxyquinolin-8-yl)ethyl)-2-oxabicyclo[2.2.2]octan-4-ylamino)methyl)-2H-pyrido[3,2-b][1,4]oxazin-3(4H)-one] | 0.063 µg/mL (≈ 0.128 µM) | –
CN(C)c1nc2c(CCC34CCC(NCc5ccc6c(n5)NC(=O)CO6)(CC3)CO4)ccnc2cc1F [Example 154, 6-((1-(2-(6-(Dimethylamino)-7-fluoro-1,5-naphthyridin-4-yl)ethyl)-2-oxabicyclo[2.2.2]octan-4-ylamino)methyl)-2H-pyrido[3,2-b][1,4]oxazin-3(4H)-one] | 1 µg/mL (≈ 1.97 µM) | –
COc1ccc2ncc(F)c(CCC34CCC(NCc5ccc6c(n5)NC(=O)CS6)(CC3)CO4)c2n1 [Example 155, 6-((1-(2-(3-Fluoro-6-methoxy-1,5-naphthyridin-4-yl)ethyl)-2-oxabicyclo[2.2.2]octan-4-ylamino)methyl)-2H-pyrido[3,2-b][1,4]thiazin-3(4H)-one] | 0.016 µg/mL (≈ 0.0314 µM) | –
COc1ccc2ncc(F)c(CC(O)C34CCC(NCc5ccc6c(n5)NC(=O)CS6)(CC3)CO4)c2n1 (stereo not shown) [Example 156, 6-((1-(2-(3-Fluoro-6-methoxy-1,5-naphthyridin-4-yl)-1-hydroxyethyl)-2-oxabicyclo[2.2.2]octan-4-ylamino)methyl)-2H-pyrido[3,2-b][1,4]thiazin-3(4H)-one] | 0.063 µg/mL (≈ 0.12 µM) | –
COc1ccc2ncc(F)c(CC(F)C34CCC(NCc5ccc6c(n5)NC(=O)CO6)(CC3)CO4)c2n1 (stereo not shown) [Example 157a, 6-[({1-[1-Fluoro-2-(3-fluoro-6-methoxy-1,5-naphthyridin-4-yl)ethyl]-2-oxabicyclo[2.2.2]oct-4-yl}amino)methyl]-2H-pyrido[3,2-b][1,4]oxazin-3(4H)-one] | 2 µg/mL (≈ 3.91 µM) | –
O=C1COc2ccc(CNC34CCC(C(O)Cc5c(F)cnc6ccc(OCCCO)nc56)(CC3)OC4)nc2N1 (stereo not shown) [Example 158, 6-{[(1-{2-[3-Fluoro-6-(3-hydroxypropoxy)-1,5-naphthyridin-4-yl]-1-hydroxyethyl}-2-oxabicyclo[2.2.2]oct-4-yl)amino]methyl}-2H-pyrido[3,2-b][1,4]oxazin-3(4H)-one] | 0.125 µg/mL (≈ 0.226 µM) | –
N#Cc1cnc2ccc(=O)n(CC(O)C34CCC(NCc5ccc6c(n5)NC(=O)CO6)(CC3)CO4)c2c1 (stereo not shown) [Example 162, 5-(2-Hydroxy-2-(4-((3-oxo-3,4-dihydro-2H-pyrido[3,2-b][1,4]oxazin-6-yl)methylamino)-2-oxabicyclo[2.2.2]octan-1-yl)ethyl)-6-oxo-5,6-dihydro-1,5-naphthyridine-3-carbonitrile] | 2 µg/mL (≈ 3.98 µM) | –
COc1ccc2ncc(F)c(CCC34CCC(NCc5ccc6c(n5)NS(=O)(=O)CO6)(CC3)CO4)c2n1 [Example 163, 7-((1-(2-(3-Fluoro-6-methoxy-1,5-naphthyridin-4-yl)ethyl)-2-oxabicyclo[2.2.2]octan-4-ylamino)methyl)-1H-pyrido[2,3-e][1,3,4]oxathiazine-2,2-dioxide] | 4 µg/mL (≈ 7.55 µM) | –
N[C@H]1C(=O)N[C@@H]1COc1ccc2ncc(F)c(CCC34CCC(NCc5ccc6c(n5)NC(=O)CO6)(CC3)CO4)c2n1 [Example 164, 6-((1-(2-(6-(((2S,3R)-3-Amino-4-oxoazetidin-2-yl)methoxy)-3-fluoro-1,5-naphthyridin-4-yl)ethyl)-2-oxabicyclo[2.2.2]octan-4-ylamino)methyl)-2H-pyrido[3,2-b][1,4]oxazin-3(4H)-one] | 0.5 µg/mL (≈ 0.866 µM) | –
NCC(O)COc1ccc2ncc(F)c(CCC34CCC(NCc5ccc6c(n5)NC(=O)CO6)(CC3)CO4)c2n1 (stereo not shown) [Example 165, 6-{[(1-{2-[6-(3-Amino-2-hydroxypropoxy)-3-fluoro-1,5-naphthyridin-4-yl]ethyl}-2-oxabicyclo[2.2.2]oct-4-yl)amino]methyl}-2H-pyrido[3,2-b][1,4]oxazin-3(4H)-one] | 2 µg/mL (≈ 3.62 µM) | –
O=C1COc2ccc(CNC34CCC(CCc5c(F)cnc6ccc(OC7CC(O)CC(O)C7)nc56)(CC3)OC4)nc2N1 (stereo not shown) [Example 166, 6-({[1-(2-{6-[(3,5-Dihydroxycyclohexyl)oxy]-3-fluoro-1,5-naphthyridin-4-yl}ethyl)-2-oxabicyclo[2.2.2]oct-4-yl]amino}methyl)-2H-pyrido[3,2-b][1,4]oxazin-3(4H)-one] | 0.5 µg/mL (≈ 0.842 µM) | –
COc1ccc2ncc(F)c(CC(OCCO)C34CCC(NCc5ccc6c(n5)NC(=O)CO6)(CC3)CO4)c2n1 (stereo not shown) [Example 167, 6-[({1-[2-(3-Fluoro-6-methoxy-1,5-naphthyridin-4-yl)-1-(2-hydroxyethoxy)ethyl]-2-oxabicyclo[2.2.2]oct-4-yl}amino)methyl]-2H-pyrido[3,2-b][1,4]oxazin-3(4H)-one] | 2 µg/mL (≈ 3.61 µM) | –
COC(=O)N(Cc1ccc2c(n1)NC(=O)CO2)C12CCC(CCc3c(F)cnc4ccc(OC)nc34)(CC1)OC2 [Example 168, Methyl {1-[2-(3-Fluoro-6-methoxy-1,5-naphthyridin-4-yl)ethyl]-2-oxabicyclo[2.2.2]oct-4-yl}[(3-oxo-3,4-dihydro-2H-pyrido[3,2-b][1,4]oxazin-6-yl)methyl]carbamate] | 16 µg/mL (≈ 29 µM) | –

Reference: US20140243302A1, “BRIDGED BICYCLIC COMPOUNDS FOR THE TREATMENT OF BACTERIAL INFECTIONS” (priority 2011, published 2014)
